Assay results reported in ChEMBL document CHEMBL4118268, “Identification, Characterization, and Optimization of 2,8-Disubstituted-1,5-naphthyridines as Novel Plasmodium falciparum Phosphatidylinositol-4-kinase Inhibitors with in Vivo Efficacy in a Humanized Mouse Model of Malaria” (J Med Chem, 2018).

Legend:
[1] = Metabolic stability in mouse liver microsomes assessed as parent compound remaining at 0.1 uM in presence of NADPH after 30 mins by LC-MS/MS analysis; assay type: ADME, microsome; details: read-out: Stability
[2] = Metabolic stability in rat liver microsomes assessed as parent compound remaining at 0.1 uM in presence of NADPH after 30 mins by LC-MS/MS analysis; assay type: ADME, microsome; details: read-out: Stability
[3] = Metabolic stability in human liver microsomes assessed as parent compound remaining at 0.1 uM in presence of NADPH after 30 mins by LC-MS/MS analysis; assay type: ADME, microsome; details: read-out: Stability
[4] = Apparent half life in Balb/c mouse at 20 mg/kg, po by LC-MS analysis; assay type: ADME, organism-based; details: in vivo, read-out: t1/2(app) (converted)
[5] = Apparent half life in Balb/c mouse at 2 mg/kg, iv by LC-MS analysis; assay type: ADME, organism-based; details: in vivo, read-out: t1/2(app) (converted)
Mus musculus [6] = test: AUC (0 to infinity) in Balb/c mouse at 2 mg/kg, iv by LC-MS analysis; assay type: ADME, organism-based; set-up: dose 2 mg/kg, route intravenous, time infinity; details: in vivo
[7] = Apparent half life in Balb/c mouse pretreated with CYP inhibitor ABT at 20 mg/kg, po by LC-MS analysis; assay type: ADME, organism-based; details: in vivo, read-out: t1/2(app) (converted)
[8] = Cmax in Balb/c mouse at 20 mg/kg, po by LC-MS analysis; assay type: ADME, organism-based; set-up: dose 20 mg/kg, route oral; details: in vivo
[9] = Tmax in Balb/c mouse pretreated with CYP inhibitor ABT at 20 mg/kg, po by LC-MS analysis; assay type: ADME, organism-based; details: in vivo
Mus musculus [10] = test: AUC (0 to infinity) in Balb/c mouse at 20 mg/kg, po by LC-MS analysis; assay type: ADME, organism-based; set-up: dose 20 mg/kg, route oral, time infinity; details: in vivo
[11] = Cmax in Balb/c mouse pretreated with CYP inhibitor ABT at 20 mg/kg, po by LC-MS analysis; assay type: ADME, organism-based; set-up: dose 20 mg/kg, route oral; details: in vivo
Mus musculus [12] = test: AUC (0 to infinity) in Balb/c mouse pretreated with CYP inhibitor ABT at 20 mg/kg, po by LC-MS analysis; assay type: ADME, organism-based; set-up: dose 20 mg/kg, route oral, time infinity; details: in vivo
[13] = Tmax in Balb/c mouse at 20 mg/kg, po by LC-MS analysis; assay type: ADME, organism-based; details: in vivo
[14] = Octanol-phosphate buffer distribution coefficient, log D of the compound at pH 7.4 measured after 1 hr by HPLC method; assay type: physicochemical
[15] = Tmax in humanized NOD-scid IL2Rgamma null mouse infected with Plasmodium falciparum 3D70087/N9 at […], po up to 96 hrs post dose by LC-MS/MS analysis; assay type: ADME, organism-based; details: in vivo
[16] = Tmax in Balb/c mouse pretreated with CYP inhibitor ABT at 5 mg/kg, po by LC-MS analysis; assay type: ADME, organism-based; details: in vivo
[17] = Cmax in humanized NOD-scid IL2Rgamma null mouse infected with Plasmodium falciparum 3D70087/N9 at 50 mg/kg, po up to 96 hrs post dose by LC-MS/MS analysis; assay type: ADME, organism-based; set-up: dose 50 mg/kg, route oral; details: in vivo
[18] = Cmax in humanized NOD-scid IL2Rgamma null mouse infected with Plasmodium falciparum 3D70087/N9 at 10 mg/kg, po up to 96 hrs post dose by LC-MS/MS analysis; assay type: ADME, organism-based; set-up: dose 10 mg/kg, route oral; details: in vivo
[19] = Cmax in humanized NOD-scid IL2Rgamma null mouse infected with Plasmodium falciparum 3D70087/N9 at 5 mg/kg, po up to 96 hrs post dose by LC-MS/MS analysis; assay type: ADME, organism-based; set-up: dose 5 mg/kg, route oral; details: in vivo
[20] = In vivo drug metabolism in Balb/c mouse assessed as naphthyridine core or pyridine substituent oxidation metabolite formation in plasma at 5 mg/kg, po or […], iv by LC-MS analysis; assay type: ADME, organism-based
Mus musculus [21] = test: AUC in humanized NOD-scid IL2Rgamma null mouse infected with Plasmodium falciparum 3D70087/N9 at 5 mg/kg, po up to 24 hrs post dose by LC-MS/MS analysis; assay type: ADME, organism-based; set-up: time < 24 hr, dose 5 mg/kg, route oral; details: in vivo
[22] = Tmax in humanized NOD-scid IL2Rgamma null mouse infected with Plasmodium falciparum 3D70087/N9 at 10 mg/kg, po up to 96 hrs post dose by LC-MS/MS analysis; assay type: ADME, organism-based; details: in vivo
Mus musculus [23] = test: AUC in humanized NOD-scid IL2Rgamma null mouse infected with Plasmodium falciparum 3D70087/N9 at […], po up to 24 hrs post dose by LC-MS/MS analysis; assay type: ADME, organism-based; set-up: dose 2.5 mg/kg, time < 24 hr, route oral; details: in vivo
[24] = Cmax in Balb/c mouse pretreated with CYP inhibitor ABT at 5 mg/kg, po by LC-MS analysis; assay type: ADME, organism-based; set-up: dose 5 mg/kg, route oral; details: in vivo
[25] = Tmax in humanized NOD-scid IL2Rgamma null mouse infected with Plasmodium falciparum 3D70087/N9 at 5 mg/kg, po up to 96 hrs post dose by LC-MS/MS analysis; assay type: ADME, organism-based; details: in vivo
[26] = Tmax in humanized NOD-scid IL2Rgamma null mouse infected with Plasmodium falciparum 3D70087/N9 at 50 mg/kg, po up to 96 hrs post dose by LC-MS/MS analysis; assay type: ADME, organism-based; details: in vivo
[27] = Apparent half life in Balb/c mouse pretreated with CYP inhibitor ABT at 5 mg/kg, po by LC-MS analysis; assay type: ADME, organism-based; details: in vivo, read-out: t1/2(app) (converted)
Mus musculus [28] = test: AUC in humanized NOD-scid IL2Rgamma null mouse infected with Plasmodium falciparum 3D70087/N9 at 50 mg/kg, po up to 24 hrs post dose by LC-MS/MS analysis; assay type: ADME, organism-based; set-up: time < 24 hr, dose 50 mg/kg, route oral; details: in vivo
Mus musculus [29] = test: AUC in humanized NOD-scid IL2Rgamma null mouse infected with Plasmodium falciparum 3D70087/N9 at 10 mg/kg, po up to 24 hrs post dose by LC-MS/MS analysis; assay type: ADME, organism-based; set-up: time < 24 hr, dose 10 mg/kg, route oral; details: in vivo
[30] = Cmax in humanized NOD-scid IL2Rgamma null mouse infected with Plasmodium falciparum 3D70087/N9 at […], po up to 96 hrs post dose by LC-MS/MS analysis; assay type: ADME, organism-based; set-up: dose 2.5 mg/kg, route oral; details: in vivo
[31] = Volume of distribution in Balb/c mouse at […], iv by LC-MS analysis; assay type: ADME, organism-based; details: in vivo
Mus musculus [32] = test: AUC (0 to infinity) in Balb/c mouse at […], iv by LC-MS analysis; assay type: ADME, organism-based; set-up: dose 1.5 mg/kg, time infinity, route intravenous; details: in vivo

SMILES | remaining at 0.5 h, 0.1 µM [1] | remaining at 0.5 h, 0.1 µM [2] | remaining at 0.5 h, 0.1 µM [3] | further results
Nc1cccc(-c2ccc3nccc(-c4ccncc4)c3n2)c1 | 54% | 61% | 78% | –
O=S(=O)(CCN1CCCC1)c1cccc(-c2ccc3nccc(-c4ccncc4)c3n2)c1 | 60% | 66% | 56% | –
NS(=O)(=O)c1cncc(-c2ccc3nccc(-c4cn[nH]c4)c3n2)c1 | 2% | – | – | –
CS(=O)(=O)Nc1cccc(-c2ccc3nccc(-c4ccncc4)c3n2)c1 | 50% | 49% | 59% | –
C[C@@H]1CN(S(=O)(=O)c2cccc(-c3ccc4nccc(-c5ccncc5)c4n3)c2)C[C@H](C)N1 | 33% | 36% | 34% | –
NS(=O)(=O)c1cccc(-c2ccc3nccc(-c4ccncc4)c3n2)c1 | – | – | – | half-life [4]: 1.6 h; half-life [5]: 2.5 h; AUC (Mus musculus [6]): 111 µM/min; half-life [7]: 3.2 h; Cmax [8]: 5000 nM; Tmax [9]: 0.5 to 1 h; AUC (Mus musculus [10]): 523 µM/min; Cmax [11]: 500 nM; AUC (Mus musculus [12]): 243 µM/min; Tmax [13]: 0.5 h
O=S(=O)(NCc1ccccc1)c1cccc(-c2ccc3nccc(-c4ccncc4)c3n2)c1 | 2% | 6% | 42% | logD at 1 h [14]: 1.8 to 4.2
NS(=O)(=O)c1ccc(-c2ccc3nccc(-c4ccncc4)c3n2)cc1 | 13% | 36% | 76% | –
NS(=O)(=O)c1cccc(-c2ccc3nccc(-c4ccncc4F)c3n2)c1 | – | – | – | logD at 1 h [14]: 1.8 to 4.2
O=S(=O)(NCCN1CCOCC1)c1cccc(-c2ccc3nccc(-c4ccncc4)c3n2)c1 | < 1% | < 1% | < 1% | –
O=S(=O)(CCO)c1cccc(-c2ccc3nccc(-c4ccncc4)c3n2)c1 | 52% | 59% | 95% | –
CS(=O)(=O)Nc1ccc2nccc(-c3ccncc3)c2n1 | 95% | 94% | 96% | –
O=S(=O)(NCC1COC1)c1cccc(-c2ccc3nccc(-c4ccncc4)c3n2)c1 | 19% | 8% | 2% | –
O=S(=O)(c1cccc(-c2ccc3nccc(-c4ccncc4)c3n2)c1)N1CCC(O)CC1 | 7% | 11% | 5% | –
O=S(=O)(c1cccc(-c2ccc3nccc(-c4ccncc4)c3n2)c1)N1CC[C@H](O)C1 | 12% | 10% | 17% | –
O=S(=O)(NCCN1CCCC1)c1cccc(-c2ccc3nccc(-c4ccnc(C(F)(F)F)c4)c3n2)c1 | 8% | 16% | 14% | –
NS(=O)(=O)c1cccc(-c2ccc3nccc(-c4ccnc(C(F)(F)F)c4)c3n2)c1 | 97% | 96% | 95% | Tmax at 96 h [15]: 4 h; logD at 1 h [14]: 1.8 to 4.2; Tmax [16]: 1 h; Cmax [17]: 6360 nM; Cmax [18]: 2230 nM; Cmax [19]: 1470 nM; Drug metabolism [20]: Metabolite_Detected; AUC (Mus musculus [21]): 1198 µM/min; Tmax [22]: 4 h; AUC (Mus musculus [23]): 658 µM/min; Cmax [24]: 2800 nM; Tmax [25]: 4 h; Tmax [26]: 2.5 h; half-life [27]: 33 h; AUC (Mus musculus [28]): 5591 µM/min; AUC (Mus musculus [29]): 2035 µM/min; Cmax at 96 h [30]: 750 nM; Vd [31]: 7 L/kg; AUC (Mus musculus [32]): 350 µM/min
